Assays:
[1] = Piglet performance with lactose and SWE, Example 3; type: in vivo, pig
[2] = Coefficient of total tract apparent digestibility, Example 3; type: in vivo, pig; conditions: SWE − or +
[3] = test system: Escherichia coli; experiment: Faecal microbiology, Example 3; type: in vivo, pig; conditions: SWE − or +
Procedure: (§1) This experiment was carried out over two consecutive periods of 25 days. 240 piglets were selected after weaning at 24 days and assigned to one of four dietary treatments. Pigs in period 1 and 2 had initial live weights of 7.2 Kg and 7.8 Kg (±0.9 Kg), respectively. This experiment was designed as a 2×2 factorial. During the experiment (days 0-25) piglets were offered the following diets: (T1) 150 g/Kg lactose; (T2) 150 g/Kg lactose+SWE; (T3) 250 g/Kg lactose (T4) 250 g/Kg lactose+SWE. SWE was included at 2.8 g/Kg and derived from Laminaria digitata. It contained laminarin (112 g/Kg), fucoidan (89 g/Kg) and ash (799 g/Kg).
(§2) Pigs were housed in groups of 4 (n=15/treatment) and weighed at weaning (day 0), day 7, 14 and 25. Pigs were fed ad libitum. Fresh faecal samples were collected on days 10 to 15 for determination of nutrient digestibility and VFA analysis. Fresh faecal samples were collected on day 10 for enumeration of E. coli and Lactobacilli (O'Connell et al., 2005).
(§3) 1 g of faecal sample was serially diluted in maximum recovery diluent (MRD; Oxoid, Basingstoke, UK) and plated on selective agars. Lactobacillus spp. were isolated on de Man Rogosa Sharp agar (MRS, Oxoid). The API 50 CHL (BioMerieux, France) kit was used to confirm suspect Lactobacilli spp. E. coli species were isolated on MacConkey agar (Oxoid). Suspect colonies were confirmed with API 20E (BioMerieux, France).

[4] = test system: Lactobacilli; experiment: Faecal microbiology, Example 3; type: in vivo, pig; conditions: SWE − or +
Procedure: as §1, §2, §3

[5] = Pig performance post weaning with LAM and FUC, Example 4; type: in vivo; conditions: for ADG: days 14-21
Source text: (§4) One hundred and ninety two piglets were weaned at twenty four days of age, with an initial live weight of 6.4±0.785 Kg and assigned to one of four dietary treatments or 21 days post weaning. The dietary treatments consisted of (T1) basal diet, (T2) basal diet with 300 ppm LAM, (T3) basal diet with 236 ppm FUC, (T4) Basal diet with 300 ppm LAM and 236 ppm FUC. Diets were formulated to have identical concentrations of digestible energy (DE) (16 MJ/Kg) and ileal digestible lysine (14 g/Kg). All amino acid requirements were met relative to lysine (Close, 1994). Chromium III oxide was added to the diets for determination of nutrient digestibility. The LAM and FUC were derived from Laminaria hyperborea.
(§5) Piglets were housed in groups of 4 and offered feed twice daily. Water was supplied ad-libitum. Any pig displaying symptoms of illness was treated appropriately and recorded. Pigs were weighed on day 0 (day of weaning), 7, 14 and 21. Feed intake was monitored weekly. Fresh faecal samples were taken on day 10 and were analysed for E. coli and Lactobacilli concentrations. Faeces samples were collected from each pen on day 12-17 and were retained for chemical analysis. Fresh faecal samples were removed on day 14 and were frozen and retained for volatile fatty acid analysis. Fresh faecal samples were taken on day 17 for pH determination.

[6] = test system: Lactobacilli; experiment: Faecal microbiology, Example 4; type: in vivo, pig
Source text: as §4, §5
A sample was serially diluted (1:10) in 9.0 ml aliquots of maximum recovery diluent (MRD, Oxoid, Basingstoke, UK), and spread plated (0.1 ml aliquots) onto selective agars. Lactobacillus spp. were isolated on de Man, Rogosa, Sharp agar (MRS, Oxoid) with overnight incubation at 37° C. in 5% CO2. The API 50 CHL (BioMerieux, France) kit was used to confirm suspect Lactobacilli spp. E. coli species were isolated on MacConkey agar (Oxoid), following aerobic incubation at 37° C. for 18-24 hours. Suspect colonies were confirmed with API 20E (BioMerieux, France).

[7] = Day 0-7, diet with 150 g/Kg lactose, SWE 2.8 g/Kg where included
[8] = Day 0-7, diet with 250 g/Kg lactose, SWE 2.8 g/Kg where included
[9] = Day 0-25, diet with 150 g/Kg lactose, SWE 2.8 g/Kg where included
[10] = Day 0-25, diet with 250 g/Kg lactose, SWE 2.8 g/Kg where included
[11] = Day 7-14, diet with 150 g/Kg lactose, SWE 2.8 g/Kg where included
[12] = Day 7-14, diet with 250 g/Kg lactose, SWE 2.8 g/Kg where included
[13] = Day 14-25, diet with 150 g/Kg lactose, SWE 2.8 g/Kg where included
[14] = Day 14-25, diet with 250 g/Kg lactose, SWE 2.8 g/Kg where included

OC[C@H]1O[C@@H](O[C@H]2[C@H](O)[C@@H](O)C(O)O[C@@H]2CO)[C@H](O)[C@@H](O)[C@H]1O (stereo partly drawn) [Lactose, lactose]
Average Daily Gain (ADG) ([1]; Day 0-7, diet with 150 g/Kg lactose, SWE 2.8 g/Kg (L. digitata) where included): 0.100 kg/day
Average Daily Feed Intake (ADFI) [1, 7]: 0.242 kg/day
Gain: Feed ratio [1, 7]: 0.413 Kg/Kg
Average Daily Gain (ADG) ([1]; Day 0-7, diet with 250 g/Kg lactose, SWE 2.8 g/Kg (L. digitata) where included): 0.146 kg/day
Average Daily Feed Intake (ADFI) [1, 8]: 0.239 kg/day
Gain: Feed ratio [1, 8]: 0.589 Kg/Kg
Average Daily Feed Intake (ADFI) [1, 9]: 0.446 kg/day
Average Daily Gain (ADG) [1, 9]: 0.275 kg/day
Gain: Feed ratio [1, 9]: 0.603 Kg/Kg
Average Daily Feed Intake (ADFI) [1, 10]: 0.458 kg/day
Average Daily Gain (ADG) [1, 10]: 0.287 kg/day
Gain: Feed ratio [1, 10]: 0.619 Kg/Kg
Average Daily Feed Intake (ADFI) [1, 11]: 0.415 kg/day
Average Daily Gain (ADG) [1, 11]: 0.302 kg/day
Gain: Feed ratio [1, 11]: 0.747 Kg/Kg
Average Daily Feed Intake (ADFI) [1, 12]: 0.450 kg/day
Average Daily Gain (ADG) [1, 12]: 0.325 kg/day
Gain: Feed ratio [1, 12]: 0.729 Kg/Kg
Average Daily Feed Intake (ADFI) [1, 13]: 0.682 kg/day
Average Daily Gain (ADG) [1, 13]: 0.438 kg/day
Gain: Feed ratio [1, 13]: 0.633 Kg/Kg
Average Daily Feed Intake (ADFI) [1, 14]: 0.683 kg/day
Average Daily Gain (ADG) [1, 14]: 0.388 kg/day
Gain: Feed ratio [1, 14]: 0.569 Kg/Kg
Digestibility Ash ([2]; diet Lactose 150 g/Kg): 53.30%
Digestibility DM ([2]; diet Lactose 150 g/Kg): 87.75%
Digestibility GE ([2]; diet Lactose 150 g/Kg): 85.93%
Digestibility N ([2]; diet Lactose 150 g/Kg): 83.69%
Digestibility NDF ([2]; diet Lactose 150 g/Kg): 37.55%
Digestibility OM ([2]; diet Lactose 150 g/Kg): 89.16%
Digestibility Ash ([2]; diet Lactose 250 g/Kg): 72.80%
Digestibility DM ([2]; diet Lactose 250 g/Kg): 91.34%
Digestibility GE ([2]; diet Lactose 250 g/Kg): 90.22%
Digestibility N ([2]; diet Lactose 250 g/Kg): 86.86%
Digestibility NDF ([2]; diet Lactose 250 g/Kg): 61.91%
Digestibility OM ([2]; diet Lactose 250 g/Kg): 92.24%
Bacterial populations Escherichia coli ([3]; diet Lactose 150 g/Kg): 6.30 Log10 CFU/g faeces
Bacterial populations Escherichia coli ([3]; diet Lactose 250 g/Kg): 5.70 Log10 CFU/g faeces
Bacterial populations Lactobacilli ([4]; diet Lactose 150 g/Kg): 8.46 Log10 CFU/g faeces
Bacterial populations Lactobacilli ([4]; diet Lactose 250 g/Kg): 8.19 Log10 CFU/g faeces

fucoidan
ADG ([5]; FUC added to a LAM diet): no effect
ADG ([5]; FUC diet (236 ppm) compared to basal diet): significantly higher
average daily feed intake ([5]; weaned pigs, 21 days, LAM 300 ppm, FUC 236 ppm): no effect
faecal Lactobacilli numbers ([6]; FUC diet (236 ppm) v basal diet (8.93)): 9.22
faecal lactobacilli populations ([6]; FUC included with LAM): no effect

— patent US9241951B2, “Of gastrointestinal health, immunity and performance by dietary intervention” (BIOATLANTIS LTD, priority 2009, dated 2016)
